Reference: patent EP0908457B1, “3-(1,2-benzisothiazol- and isoxazol-5-Y1)-2,4(1H,3H)-pyrimidinedione or thione and 3-(1,2-benzisothiazol- and isoxazol-5-y1)-4(3H)-pyrimidinone or thione herbicidal agents” (BASF AKTIENGESELLSCHAFT, priority 1997, dated 1999)

Assays:
[1] = test system: Monochoria vaginalis, Presl.; test: Preemergence weed control under flooded paddy conditions, MOOVA (Monochoria); format: in vivo; conditions: flooded paddy, rated three to four weeks after treatment; for MOOVA herbicidal effect rating: preemergence; for herbicidal effect rating, MOOVA: preemergence weeds; on herbicidal effect rating, MOOVA: meaning of each grade not given here
[2] = test system: Sagittaria pygmaea, L.; test: Preemergence weed control under flooded paddy conditions, SAGPY (Arrowhead (Pygmaea)); format: in vivo; conditions: flooded paddy, rated three to four weeks after treatment; for SAGPY herbicidal effect rating: preemergence; for herbicidal effect rating, SAGPY: preemergence weeds; on herbicidal effect rating, SAGPY: meaning of each grade not given here
[3] = test system: Cyperus iria; test: Preemergence weed control under flooded paddy conditions, CYPIR (Rice Flatsedge); format: in vivo; conditions: flooded paddy, rated three to four weeks after treatment; for CYPIR herbicidal effect rating: preemergence; for herbicidal effect rating, CYPIR: preemergence weeds; on herbicidal effect rating, CYPIR: meaning of each grade not given here
[4] = test system: Oryza sativa, (L.) Tebonnet; test: Rice tolerance to post-transplant applications under flooded paddy conditions (Example 187), ORYSAT (Rice, Tebonnet); conditions: rated three to four weeks after treatment
[5] = test system: Echinochloa oryzoides (Ard.) Fritsch.; test: Preemergence weed control under flooded paddy conditions, ECHORC (Watergrass (Calif.)); format: in vivo; conditions: flooded paddy, rated three to four weeks after treatment; for ECHORC herbicidal effect rating: preemergence; for herbicidal effect rating, ECHORC: preemergence weeds; on herbicidal effect rating, ECHORC: meaning of each grade not given here

Row | Structure (SMILES) | MOOVA herbicidal effect rating ([1]; Rate 0.0320 kg/ha) | MOOVA herbicidal effect rating ([1]; Rate 0.0620 kg/ha) | MOOVA herbicidal effect rating ([1]; Rate 0.1250 kg/ha) | MOOVA herbicidal effect rating ([1]; Rate 0.2500 kg/ha) | SAGPY herbicidal effect rating ([2]; Rate 0.0320 kg/ha) | SAGPY herbicidal effect rating ([2]; Rate 0.0620 kg/ha) | SAGPY herbicidal effect rating ([2]; Rate 0.1250 kg/ha) | SAGPY herbicidal effect rating ([2]; Rate 0.2500 kg/ha) | CYPIR herbicidal effect rating ([3]; Rate 0.0320 kg/ha) | CYPIR herbicidal effect rating ([3]; Rate 0.0620 kg/ha) | CYPIR herbicidal effect rating ([3]; Rate 0.1250 kg/ha) | CYPIR herbicidal effect rating ([3]; Rate 0.2500 kg/ha) | ORYSAT herbicidal effect rating ([4]; Rate 0.0320 kg/ha) | ORYSAT herbicidal effect rating ([4]; Rate 0.0620 kg/ha) | ORYSAT herbicidal effect rating ([4]; Rate 0.1250 kg/ha) | ORYSAT herbicidal effect rating ([4]; Rate 0.2500 kg/ha) | ECHORC herbicidal effect rating ([5]; Rate 0.0320 kg/ha) | ECHORC herbicidal effect rating ([5]; Rate 0.0620 kg/ha) | ECHORC herbicidal effect rating ([5]; Rate 0.1250 kg/ha) | ECHORC herbicidal effect rating ([5]; Rate 0.2500 kg/ha) | further results
1 | Cn1c(C(F)(F)F)cc(=O)n(-c2ccc3snc(COCC(=O)O)c3c2)c1=O [Example 293, Acetic acid, {{5-[3,6-dihydro-3-methyl-2,6-dioxo-4-(trifluoromethyl)-1(2H)-pyrimidinyl]-1,2-benzisothiazol-3-yl}methoxy}-] | 9.0 | 9.0 | 9.0 | 9.0 | 0.0 | 0.0 | 0.0 | 6.0 | 9.0 | 9.0 | 9.0 | 9.0 | 0.0 | 0.0 | 0.0 | 0.0 | 0.0 | 0.0 | 0.0 | 0.0 | –
2 | CNC.Cn1c(C(F)(F)F)cc(=O)n(-c2ccc3snc(COCC(=O)NS(C)(=O)=O)c3c2)c1=O [Example 295, Acetamide, 2-{{5-[3,6-dihydro-3-methyl-2,6-dioxo-4-(trifluoromethyl)-1(2H)-pyrimidinyl]-1,2-benzisothiazol-3-yl}methoxy}-N-(methylsulfonyl)-, dimethylamine salt] | – | 0.0 | 9.0 | 9.0 | – | 0.0 | 0.0 | 6.0 | – | 0.0 | 9.0 | 9.0 | – | 0.0 | 0.0 | 0.0 | – | 0.0 | 0.0 | 0.0 | –
3 | Cn1c(C(F)(F)F)cc(=O)n(-c2ccc3snc(/C=C/C=O)c3c2)c1=O [Example 291, 1,2-Benzisothiazole-3-acrylaldehyde, 5-[3,6-dihydro-3-methyl-2,6-dioxo-4-(trifluoromethyl)-1(2H)-pyrimidinyl]-, (E)-] | 0.0 | 9.0 | 9.0 | 9.0 | 0.0 | 0.0 | 0.0 | 0.0 | 0.0 | 0.0 | 9.0 | 9.0 | 0.0 | 0.0 | 0.0 | 0.0 | 0.0 | 0.0 | 0.0 | 0.0 | –
4 | CNC.Cn1c(C(F)(F)F)cc(=O)n(-c2ccc3snc(CSCC(=O)NS(C)(=O)=O)c3c2)c1=O [Example 298, Acetamide, 2-{{{5-[3,6-dihydro-3-methyl-2,6-dioxo-4-(trifluoromethyl)-1(2H)-pyrimidinyl]-1,2-benzisothiazol-3-yl}methyl}thio}-N-(methylsulfonyl)-, dimethylamine salt] | – | – | – | – | – | – | – | – | – | – | – | – | – | – | – | – | – | – | – | – | herbicidal effect rating, MOOVA ([1]; Rate 0.0320 kg/ha): 9.0; herbicidal effect rating, MOOVA ([1]; Rate 0.0620 kg/ha): 9.0; herbicidal effect rating, MOOVA ([1]; Rate 0.1250 kg/ha): 9.0; herbicidal effect rating, MOOVA ([1]; Rate 0.2500 kg/ha): 9.0; herbicidal effect rating, SAGPY ([2]; Rate 0.0320 kg/ha): 0.0; herbicidal effect rating, SAGPY ([2]; Rate 0.0620 kg/ha): 0.0; herbicidal effect rating, SAGPY ([2]; Rate 0.1250 kg/ha): 3.0; herbicidal effect rating, SAGPY ([2]; Rate 0.2500 kg/ha): 9.0; herbicidal effect rating, CYPIR ([3]; Rate 0.0320 kg/ha): 3.0; herbicidal effect rating, CYPIR ([3]; Rate 0.0620 kg/ha): 9.0; herbicidal effect rating, CYPIR ([3]; Rate 0.1250 kg/ha): 9.0; herbicidal effect rating, CYPIR ([3]; Rate 0.2500 kg/ha): 9.0; herbicidal effect rating ORYSAT ([4]; Rate 0.0320 kg/ha): 0.0; herbicidal effect rating ORYSAT ([4]; Rate 0.0620 kg/ha): 0.0; herbicidal effect rating ORYSAT ([4]; Rate 0.1250 kg/ha): 0.0; herbicidal effect rating ORYSAT ([4]; Rate 0.2500 kg/ha): 0.0; herbicidal effect rating, ECHORC ([5]; Rate 0.0320 kg/ha): 0.0; herbicidal effect rating, ECHORC ([5]; Rate 0.0620 kg/ha): 0.0; herbicidal effect rating, ECHORC ([5]; Rate 0.1250 kg/ha): 0.0; herbicidal effect rating, ECHORC ([5]; Rate 0.2500 kg/ha): 3.0
